{"source": "ChEMBL document CHEMBL4699619", "about": "“Development of a Polo-like Kinase-1 Polo-Box Domain Inhibitor as a Tumor Growth Suppressor in Mice Models” (J Med Chem, 2020)", "key": {"HeLa [1]": {"tested_on": "HeLa", "test": "Induction of cell cycle arrest in human Hela cells assessed as number of cells at G2/M phase at 200 uM after 24 hrs by flow cytometry analysis (reference value: 18%)", "format": "functional"}, "Homo sapiens": {"organism": "Homo sapiens", "test": "Selectivity ratio for binding affinity for PLK2 PBD (unknown origin) to binding affinity for PLK1 PBD (unknown origin)"}, "[2]": {"test": "AUC(infinity) in ICR mouse at 5 mg/kg, iv measured upto 24 hrs by LC/MS/MS analysis", "format": "ADME, organism-based", "parameters": "route intravenous, dose 5 mg/kg, time <=24", "conditions": "in vivo"}, "HeLa [3]": {"tested_on": "HeLa", "test": "Induction of apoptosis in human Hela cells assessed as dead cells at 200 uM after 48 hrs by fluorescence microscope analysis relative to control", "format": "functional"}, "[4]": {"test": "Clearance in ICR mouse at 5 mg/kg, iv measured upto 24 hrs by LC/MS/MS analysis", "format": "ADME, organism-based", "conditions": "in vivo"}, "[5]": {"test": "Drug uptake in muscle of BALB/c nu/nu mouse xenografted with Hela cells using Cy5-conjugated compound at 5 mg/kg, iv measured after 48 hrs by fluorescence microscopic analysis", "format": "ADME, organism-based, Muscle tissue", "conditions": "in vivo"}, "[6]": {"test": "Toxicity in Balb/c nu nu mouse xenografted with human Hela cells assessed as changed in body weight at 5 mg/kg, iv for 29 days", "format": "organism-based", "conditions": "in vivo, 696 h, time 29 day"}, "[7]": {"test": "Ratio of drug uptake in BALB/c nu/nu mouse xenografted with Hela cells tumor to muscle using Cy5-conjugated compound at 5 mg/kg, iv measured after 24 hrs by fluorescence microscopic analysis", "format": "ADME, organism-based", "conditions": "in vivo"}, "HeLa [8]": {"tested_on": "HeLa", "test": "Antitumor activity against human Hela cells xenografted in Balb/c nu nu mouse assessed as decrease in tumor size at 5 mg/kg, iv for 29 days", "format": "functional, organism-based", "conditions": "time 29.0 day"}, "[9]": {"biological_target": "Serine/threonine-protein kinase PLK3 (Homo sapiens, UniProt Q9H4B4)", "sequence (Q9H4B4 whole entry)": "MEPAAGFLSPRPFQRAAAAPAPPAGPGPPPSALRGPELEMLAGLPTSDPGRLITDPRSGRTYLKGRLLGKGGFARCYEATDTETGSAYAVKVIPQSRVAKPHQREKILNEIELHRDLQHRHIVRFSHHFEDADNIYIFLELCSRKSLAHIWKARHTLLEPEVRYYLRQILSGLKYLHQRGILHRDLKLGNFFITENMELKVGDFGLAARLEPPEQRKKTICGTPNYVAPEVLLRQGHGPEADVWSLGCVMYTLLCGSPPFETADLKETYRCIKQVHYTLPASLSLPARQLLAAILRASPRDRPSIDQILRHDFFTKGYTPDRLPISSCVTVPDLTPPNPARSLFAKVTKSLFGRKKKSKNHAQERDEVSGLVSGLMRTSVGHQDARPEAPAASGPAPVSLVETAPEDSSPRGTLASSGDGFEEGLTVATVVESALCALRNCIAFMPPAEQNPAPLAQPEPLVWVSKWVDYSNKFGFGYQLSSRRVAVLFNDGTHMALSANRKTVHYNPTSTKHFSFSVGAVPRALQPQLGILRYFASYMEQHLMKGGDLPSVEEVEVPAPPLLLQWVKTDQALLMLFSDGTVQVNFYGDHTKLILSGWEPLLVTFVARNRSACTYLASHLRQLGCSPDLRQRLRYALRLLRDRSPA", "test": "Displacement of 5-carboxyfluorescein-labeled PBD-binding peptide from PLk3 PBD (unknown origin) expressed in bacterial expression system incubated for 10 mins by fluorescence polarization assay"}, "[10]": {"test": "Drug uptake in tumor of BALB/c nu/nu mouse xenografted with Hela cells using Cy5-conjugated compound at 5 mg/kg, iv measured after 48 hrs by fluorescence microscopic analysis", "format": "ADME, organism-based, Neoplasm", "conditions": "in vivo"}, "[11]": {"biological_target": "T1, Serine/threonine-protein kinase PLK1 (Homo sapiens, UniProt P53350)", "T1 sequence (P53350 whole entry)": "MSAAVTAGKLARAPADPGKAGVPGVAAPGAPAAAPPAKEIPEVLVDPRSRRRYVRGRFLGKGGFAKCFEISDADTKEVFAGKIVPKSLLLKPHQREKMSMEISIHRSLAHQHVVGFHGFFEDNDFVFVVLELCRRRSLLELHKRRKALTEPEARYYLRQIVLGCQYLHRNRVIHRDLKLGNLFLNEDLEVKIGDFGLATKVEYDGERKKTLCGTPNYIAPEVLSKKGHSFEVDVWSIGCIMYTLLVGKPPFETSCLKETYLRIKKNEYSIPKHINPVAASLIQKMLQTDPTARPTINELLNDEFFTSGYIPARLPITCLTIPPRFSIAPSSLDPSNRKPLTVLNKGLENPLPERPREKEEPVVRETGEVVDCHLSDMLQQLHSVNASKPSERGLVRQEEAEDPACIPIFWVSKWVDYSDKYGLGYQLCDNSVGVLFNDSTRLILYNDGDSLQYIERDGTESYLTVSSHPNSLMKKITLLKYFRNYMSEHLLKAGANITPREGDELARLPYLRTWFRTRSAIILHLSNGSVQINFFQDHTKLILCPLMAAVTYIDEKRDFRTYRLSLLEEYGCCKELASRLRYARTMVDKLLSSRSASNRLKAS", "test": "Inhibition PLK1 localization in mitotic kinetochore in human Hela cells at 200 uM after 18 hrs by immunofluorescence analysis relative to control", "format": "cell-based"}, "HeLa [12]": {"tested_on": "HeLa", "test": "Induction of apoptosis in human Hela cells assessed as dead cells at 200 uM after 24 hrs by fluorescence microscope analysis relative to control", "format": "functional"}, "[13]": {"biological_target": "T1, Serine/threonine-protein kinase PLK1", "test": "Displacement of 5-carboxyfluorescein-labeled PBD-binding peptide from PLk1 PBD (unknown origin) expressed in bacterial expression system incubated for 10 mins by fluorescence polarization assay"}, "[14]": {"biological_target": "T1, Serine/threonine-protein kinase PLK1", "test": "Inhibition of PLK1 PBD interaction with p-Cdc25c in human Hela cells assessed as decrease in phosphorylated Cdc25c co-preciptated with GST-PLK1 PBD by pull down assay", "format": "cell-based"}, "[15]": {"test": "Mean residence time in ICR mouse at 5 mg/kg, iv measured upto 24 hrs by LC/MS/MS analysis", "format": "ADME, organism-based", "conditions": "in vivo"}, "[16]": {"test": "Half life in ICR mouse at 5 mg/kg, iv measured upto 24 hrs by LC/MS/MS analysis", "format": "ADME, organism-based", "conditions": "in vivo"}, "[17]": {"test": "Volume of distribution at steady state in ICR mouse at 5 mg/kg, iv measured upto 24 hrs by LC/MS/MS analysis", "format": "ADME, organism-based", "conditions": "in vivo"}, "[18]": {"test": "Ratio of drug uptake in BALB/c nu/nu mouse xenografted with Hela cells tumor to muscle using Cy5-conjugated compound at 5 mg/kg, iv measured after 30 hrs by fluorescence microscopic analysis", "format": "ADME, organism-based", "conditions": "in vivo"}, "[19]": {"test": "Ratio of drug uptake in BALB/c nu/nu mouse xenografted with Hela cells tumor to muscle using Cy5-conjugated compound at 5 mg/kg, iv measured after 48 hrs by fluorescence microscopic analysis", "format": "ADME, organism-based", "conditions": "in vivo"}, "[20]": {"test": "Ratio of drug uptake in BALB/c nu/nu mouse xenografted with Hela cells tumor to muscle using Cy5-conjugated compound at 5 mg/kg, iv measured after 6 hrs by fluorescence microscopic analysis", "format": "ADME, organism-based", "conditions": "in vivo"}, "HeLa [21]": {"tested_on": "HeLa", "test": "Induction of cell cycle arrest in human Hela cells assessed as number of cells at S phase at 200 uM after 24 hrs by flow cytometry analysis (reference value: 7.86%)", "format": "functional"}, "HeLa [22]": {"tested_on": "HeLa", "test": "Induction of cell cycle arrest in human Hela cells assessed as number of cells at G0/G1 phase at 200 uM after 24 hrs by flow cytometry analysis (reference value: 74.14%)", "format": "functional"}, "[23]": {"test": "AUClast in ICR mouse at 5 mg/kg, iv measured upto 24 hrs by LC/MS/MS analysis", "format": "ADME, organism-based", "parameters": "route intravenous, dose 5 mg/kg, time <=24", "conditions": "in vivo"}, "[24]": {"test": "Drug uptake in human Hela cells using Cy5-conjugated compound at 200 uM after 18 hrs by fluorescence microscopic analysis", "format": "ADME, cell-based"}, "HeLa [25]": {"tested_on": "HeLa", "test": "Induction of cell cycle arrest in human Hela cells assessed as number of cells at S phase at 100 nM after 24 hrs by flow cytometry analysis (reference value: 7.86%)", "format": "functional"}, "HeLa [26]": {"tested_on": "HeLa", "test": "Induction of apoptosis in human Hela cells assessed as dead cells at 100 nM after 24 hrs by fluorescence microscope analysis relative to control", "format": "functional"}, "HeLa [27]": {"tested_on": "HeLa", "test": "Induction of cell cycle arrest in human Hela cells assessed as number of cells at G0/G1 phase at 100 nM after 24 hrs by flow cytometry analysis (reference value: 74.14%)", "format": "functional"}, "HeLa [28]": {"tested_on": "HeLa", "test": "Induction of apoptosis in human Hela cells assessed as dead cells at 100 nM after 48 hrs by fluorescence microscope analysis relative to control", "format": "functional"}, "HeLa [29]": {"tested_on": "HeLa", "test": "Induction of cell cycle arrest in human Hela cells assessed as number of cells at G2/M phase at 100 nM after 24 hrs by flow cytometry analysis (reference value: 18%)", "format": "functional"}}, "note": "Activity calls are given as the source filed them. No cut-off for these calls is given here. Non-standard residues stand in square brackets, D forms with d. Residues, ends and D or L forms follow the SMILES beside them. pT = C[C@@H](OP(=O)(O)O)[C@H](N)C(=O)O", "data": [{"smiles": "CNc1ccc(C(=O)NCCn2cc(C=C3C(=O)NC(=O)NC3=O)c(-c3ccccc3)n2)cc1", "values": [{"measurement": "Activity", "setting": "HeLa [1]", "result": 27.12, "unit": "%"}, {"measurement": "Ratio", "setting": "Homo sapiens", "result": 2}, {"measurement": "AUC", "setting": "[2]", "result": 11535.29, "unit": "ng·h/mL"}, {"measurement": "Activity", "setting": "HeLa [3]", "result": 71.1, "unit": "%"}, {"measurement": "CL", "setting": "[4]", "result": 7.17, "unit": "mL/min/kg"}, {"measurement": "Drug uptake", "setting": "[5]", "result": "Active"}, {"measurement": "Activity", "setting": "[6]", "result": "Non-Toxic"}, {"measurement": "Ratio", "setting": "[7]", "result": 3.9}, {"measurement": "Activity", "setting": "HeLa [8]", "result": "Active"}, {"measurement": "inhibition (INH)", "setting": "[9]", "result": "Not Active"}, {"measurement": "Drug uptake", "setting": "[10]", "result": "Active"}, {"measurement": "inhibition", "setting": "[11]", "result": 61, "unit": "%"}, {"measurement": "Activity", "setting": "HeLa [12]", "result": 24.6, "unit": "%"}, {"measurement": "IC50", "setting": "[13]", "result": 16.4, "unit": "µM"}, {"measurement": "inhibition", "setting": "[14]", "result": "Active"}, {"measurement": "MRT", "setting": "[15]", "result": 0.72, "unit": "h"}, {"measurement": "t1/2", "setting": "[16]", "result": 7.73, "unit": "h"}, {"measurement": "Vdss", "setting": "[17]", "result": 0.31, "unit": "L/kg"}, {"measurement": "Ratio", "setting": "[18]", "result": 4.11}, {"measurement": "Ratio", "setting": "[19]", "result": 4.2}, {"measurement": "Ratio", "setting": "[20]", "result": 2.1}, {"measurement": "Activity", "setting": "HeLa [21]", "result": 18.41, "unit": "%"}, {"measurement": "Activity", "setting": "HeLa [22]", "result": 54.47, "unit": "%"}, {"measurement": "AUClast", "setting": "[23]", "result": 11504.31, "unit": "ng·h/mL"}, {"measurement": "Drug uptake", "setting": "[24]", "result": "Active"}]}, {"smiles": "O=C1NC(=O)C(=Cc2cn(CCNC(=O)c3ccccc3)nc2-c2ccccc2)C(=O)N1", "values": [{"measurement": "inhibition", "setting": "[13]", "result": "inactive"}]}, {"smiles": "O=C1NC(=O)C(=Cc2cn(CCCCc3ccccc3)nc2-c2ccccc2)C(=O)N1", "values": [{"measurement": "inhibition", "setting": "[13]", "result": "Active"}]}, {"smiles": "CS(=O)(=O)c1ccc(C(=O)NCCn2cc(C=C3C(=O)NC(=O)NC3=O)c(-c3ccccc3)n2)cc1", "values": [{"measurement": "inhibition", "setting": "[13]", "result": "inactive"}]}, {"smiles": "O=C1NC(=O)C(=Cc2cn(Cc3ccc(OC(F)(F)F)cc3)nc2-c2ccccc2)C(=O)N1", "values": [{"measurement": "inhibition", "setting": "[13]", "result": "inactive"}]}, {"smiles": "O=C1NC(=O)C(=Cc2cn(Cc3ccccc3)nc2-c2ccccc2)C(=O)N1", "values": [{"measurement": "IC50", "setting": "[13]", "result": 52.7, "unit": "µM"}]}, {"smiles": "O=C1NC(=O)C(=Cc2cn(CCN3CCOCC3)nc2-c2ccccc2)C(=O)N1", "values": [{"measurement": "IC50", "setting": "[13]", "result": 71, "unit": "µM"}]}, {"smiles": "CN1C(=O)C(=Cc2cn(-c3ccccc3)nc2-c2ccccc2)C(=O)N(C)C1=O", "values": [{"measurement": "inhibition", "setting": "[13]", "result": "inactive"}]}, {"smiles": "O=C1C(=Cc2cn(-c3ccccc3)nc2-c2ccccc2)C(=O)N(CCc2ccccc2)C(=O)N1CCc1ccccc1", "values": [{"measurement": "inhibition", "setting": "[13]", "result": "inactive"}]}, {"smiles": "CC[C@@H]1C(=O)N(C)c2cnc(Nc3ccc(C(=O)NC4CCN(C)CC4)cc3OC)nc2N1C1CCCC1", "note": "[BI-2536]", "values": [{"measurement": "Activity", "setting": "HeLa [25]", "result": 9.9, "unit": "%"}, {"measurement": "Activity", "setting": "[6]", "result": "Non-Toxic"}, {"measurement": "Activity", "setting": "HeLa [8]", "result": "Active"}, {"measurement": "Activity", "setting": "HeLa [26]", "result": 31.1, "unit": "%"}, {"measurement": "Activity", "setting": "HeLa [27]", "result": 61.34, "unit": "%"}, {"measurement": "Activity", "setting": "HeLa [28]", "result": 91.5, "unit": "%"}, {"measurement": "Activity", "setting": "HeLa [29]", "result": 28.76, "unit": "%"}]}, {"smiles": "CCCN1C(=O)C(=Cc2cn(-c3ccccc3)nc2-c2ccccc2)C(=O)N(CCC)C1=O", "values": [{"measurement": "inhibition", "setting": "[13]", "result": "inactive"}]}, {"smiles": "O=C1NC(=O)C(=Cc2cn(Cc3cccc(OC(F)(F)F)c3)nc2-c2ccccc2)C(=O)N1", "values": [{"measurement": "inhibition", "setting": "[13]", "result": "inactive"}]}, {"smiles": "CSc1ccc(Cn2cc(C=C3C(=O)NC(=O)NC3=O)c(-c3ccccc3)n2)cc1", "values": [{"measurement": "inhibition", "setting": "[13]", "result": "inactive"}]}, {"smiles": "O=C1NC(=O)C(=Cc2cn(CCNC(=O)C3CCCCC3)nc2-c2ccccc2)C(=O)N1", "values": [{"measurement": "inhibition", "setting": "[13]", "result": "inactive"}]}, {"smiles": "O=C1NC(=O)C(=Cc2cn(-c3ccccc3)nc2-c2ccccc2)C(=O)N1", "values": [{"measurement": "IC50", "setting": "[13]", "result": 32.2, "unit": "µM"}]}, {"smiles": "CC[C@H](C)[C@H](NC(=O)[C@H](C)NC(=O)[C@@H](NC(=O)[C@H](CO)NC(=O)[C@H](Cc1cnc[nH]1)NC(=O)[C@H](CC(C)C)NC(=O)[C@@H]1CCCN1C(C)=O)[C@@H](C)OP(=O)(O)O)C(=O)N[C@@H](Cc1ccc(O)cc1)C(=O)N[C@@H](C)C(N)=O", "note": "(Ac-PLHS[pT]AIYA-NH2)", "values": [{"measurement": "IC50", "setting": "[13]", "result": 0.23, "unit": "µM"}]}]}
